# In ChEMBL document CHEMBL1158893, “New icetexane and 20 norabietane diterpenes with trypanocidal activity from Dracocephalum komarovi” (2003):
# System: Trypanosoma cruzi
# Test: Trypanocidal activity against Trypanosoma cruzi epimastigotes
# Assay type: functional
row,Compound,MLC [µM]
1,CN(C)c1ccc(C(=C2C=CC(=[N+](C)C)C=C2)c2ccc(N(C)C)cc2)cc1.[Cl-] [GENTIAN VIOLET],6.3
2,COc1c(O)c2c(c(O)c1C(C)C)C(=O)C[C@H]1[C@]3(C)CCC[C@]21OC3 [DRACOCEPHALONE A],200
3,CC(C)c1c(O)c2c(c3c1OCO3)C[C@@]1(O)CCCC(C)(C)[C@@H]1CC2=O [CYCLOCOULTERONE],20
4,COC1=C(C(C)C)C(=O)C2=C(C[C@@]34CCCC(C)(C)[C@@H]3C[C@]2(O)O4)C1=O [KOMAROVIQUINONE],0.4
